These results are taken from patent US20230348426A1, “OXOPYRROLIDINE FPR2 AGONISTS” (Bristol-Myers Squibb Company, priority 2020, published 2023).

For one experiment, the target named is human FPR2 (Homo sapiens (Human), UniProt P25090). The experiment is described as follows: FPR2 cyclic adenosine monophosphate (cAMP) assay. Conditions: CHO cells overexpressing human FPR2; forskolin 5 µM; inhibition of cAMP production; read-out: hFPR2 cAMP2 EC50. It counts as cell-based. An excerpt: (§1) N-formyl peptide receptors (FPRs) are a family of chemo attractant receptors that facilitate leukocyte response during inflammation. FPRs belong to the seven-transmembrane G protein-coupled receptor superfamily and are linked to inhibitory G-proteins (Gi). Three family members (FPR1, FPR2 and FPR3) have been identified in humans and are predominantly found in myeloid cells with varied distribution and have also been reported in multiple organs and tissues. After agonist binding, the FPRs activate a multitude of physiological pathways, such as intra cellular signaling transduction, Ca^2+ mobilization and transcription. The family interacts with a diverse set of ligands that includes proteins, polypeptides and fatty acid metabolites which activate both pro-inflammatory and pro-resolution downstream responses. FPR2 and FPR1 Cyclic Adenosine Monophosphate (cAMP) Assays were used to measure the activity of the compounds in this patent.
(§2) FPR2 and FPR1 Cyclic Adenosine Monophosphate (cAMP) Assays. A mixture of forskolin (5 µM final for FPR2 or 10 µM final for FPR1) and IBMX (200 µM final) were added to 384-well Proxiplates (Perkin-Elmer) pre-dotted with test compounds in DMSO (1% final) at final concentrations in the range of 0.020 nM to 100 µM. Chinese Hamster Ovary cells (CHO) overexpressing human FPR1 or human FPR2 receptors were cultured in F-12 (Ham’s) medium supplemented with 10% qualified FBS, 250 µg/ml zeocin and 300 µg/ml hygromycin (Life Technologies). Reactions were initiated by adding 2,000 human FPR2 cells per well or 4,000 human FPR1 cells per well in Dulbecco’s PBS (with calcium and magnesium) (Life Technologies) supplemented with 0.1% BSA (Perkin-Elmer). The reaction mixtures were incubated for 30 min at room temperature. The level of intracellular cAMP was determined using the HTRF HiRange cAMP assay reagent kit (Cisbio) according to manufacturer’s instruction. Solutions of cryptate conjugated anti-cAMP and d2 flurorophore-labelled cAMP were made in a supplied lysis buffer separately. Upon completion of the reaction, the cells were lysed with equal volume of the d2-cAMP solution and anti-cAMP solution. After a 1-h room temperature incubation, time-resolved fluorescence intensity was measured using the Envision (Perkin-Elmer) at 400 nm excitation and dual emission at 590 nm and 665 nm. A calibration curve was constructed with an external cAMP standard at concentrations ranging from 1 µM to 0.1 pM by plotting the fluorescent intensity ratio from 665 nm emission to the intensity from the 590 nm emission against cAMP concentrations. The potency and activity of a compound to inhibit cAMP production was then determined by fitting to a 4-parametric logistic equation from a plot of cAMP level versus compound concentrations.

The target in the next experiment is human FPR1 (Homo sapiens (Human), UniProt P21462). The experiment is described as follows: FPR1 cyclic adenosine monophosphate (cAMP) assay. The settings on record: CHO cells overexpressing human FPR1; forskolin 10 µM; inhibition of cAMP production; read-out: hFPR1 cAMP EC50. The class given is cell-based.
Excerpt: as §1
as §2, with “After a 1-h room temperature incubation, time-resolved fluorescence intensity was measured using the Envision (Perkin-Elmer) at 400 nm excitation and dual emission at 590 nm and 665 nm. A calibration curve was constructed with an external cAMP standard at concentrations ranging from 1 µM to 0.1 pM by plotting the fluorescent intensity ratio from 665 nm emission to the intensity from the 590 nm emission against cAMP concentrations.” left out
(In general: cAMP levels reflect the balance of adenylyl cyclase and phosphodiesterase activity.)

Structures are written as SMILES. Bounds are passed on as bounds.

human FPR2, sequence (P25090 whole entry): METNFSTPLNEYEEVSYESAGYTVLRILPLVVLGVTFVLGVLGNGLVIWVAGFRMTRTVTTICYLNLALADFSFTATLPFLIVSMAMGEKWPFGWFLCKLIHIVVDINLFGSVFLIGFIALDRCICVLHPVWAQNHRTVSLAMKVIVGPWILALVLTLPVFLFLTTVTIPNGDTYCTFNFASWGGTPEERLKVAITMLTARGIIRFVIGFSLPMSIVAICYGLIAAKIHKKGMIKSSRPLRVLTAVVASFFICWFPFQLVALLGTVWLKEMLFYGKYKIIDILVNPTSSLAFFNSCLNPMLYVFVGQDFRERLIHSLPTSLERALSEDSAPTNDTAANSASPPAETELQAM
human FPR1, sequence (P21462 whole entry): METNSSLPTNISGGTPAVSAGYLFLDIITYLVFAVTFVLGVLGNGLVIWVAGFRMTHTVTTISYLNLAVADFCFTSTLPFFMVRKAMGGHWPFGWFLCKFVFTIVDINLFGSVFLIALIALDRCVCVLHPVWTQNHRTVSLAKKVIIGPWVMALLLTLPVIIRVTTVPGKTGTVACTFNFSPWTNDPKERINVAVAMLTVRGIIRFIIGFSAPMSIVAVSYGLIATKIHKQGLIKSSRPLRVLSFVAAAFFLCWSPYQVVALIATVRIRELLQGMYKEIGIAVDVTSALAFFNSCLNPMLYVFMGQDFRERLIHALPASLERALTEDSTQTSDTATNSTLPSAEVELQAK

Regarding `COc1cc(N2C[C@@H]3C[C@H]2CN3C)nc(N2C(=O)[C@@H](NC(=O)c3ccc(OC(F)F)cc3)[C@H](c3c(F)cc(OC)cc3F)[C@@H]2C)c1` [Example 51], the EC50 on human FPR2 stood at 1.2 nM; on human FPR1, 5500 nM.

Regarding `COc1cc(F)c([C@@H]2CN(c3cccn(C(F)F)c3=O)C(=O)[C@H]2NC(=O)c2ccc(OC(F)F)cc2)c(F)c1` [Example 52], the EC50 is 1.3 nM at human FPR2 and 27 nM on human FPR1.

On to `COCCn1cccc(N2C[C@@H](c3ccc(OC)cc3F)[C@H](NC(=O)c3ccc(OC(F)(F)F)cc3)C2=O)c1=O` [Example 53], for which the results for the concentration giving a half-maximal response (EC50) on human FPR2 and at human FPR1 were 1.4 nM and 2.3 nM, respectively.

As for `COc1cc(F)c([C@@H]2CN(c3nc(N4CCN(C)CC4)ccc3F)C(=O)[C@H]2NC(=O)c2ccc(OC(F)F)cc2)c(F)c1` [Example 54], the concentration for a half-maximal effect (EC50) came to 1.4 nM on human FPR2 and 820 nM on human FPR1.

In the case of `COc1ccc([C@@H]2CN(c3cccn(CCC(F)(F)F)c3=O)C(=O)[C@H]2NC(=O)c2ccc(OC(F)F)cc2)c(F)c1` [Example 55], the concentration giving a half-maximal response (EC50) at human FPR2 was 1.4 nM; on human FPR1, 8.6 nM.

Regarding `COCCn1cccc(N2C[C@@H](c3ccc(OC)cc3F)[C@H](NC(=O)c3ccc(OC(F)(F)F)cc3)C2=O)c1=O` [Example 56], the EC50 on human FPR2 turned out to be 1.4 nM; at human FPR1 it was 4 nM.

Take `COc1ccc([C@@H]2CN(c3c(C)ccn(CC4CC4)c3=O)C(=O)[C@H]2NC(=O)c2ccc(OC(F)(F)F)cc2)cc1` [Example 57]: the EC50 at human FPR2 is 1.4 nM; on human FPR1, 0.066 nM.

As to `COc1cc(F)c([C@@H]2CN(c3nc(N4CCOCC4=O)ccc3F)C(=O)[C@H]2NC(=O)c2ccc(OC(F)(F)F)cc2)c(F)c1` [Example 58], the EC50 on human FPR2 was 1.5 nM; at human FPR1 it was 3.5 nM.

With `COc1ccc([C@@H]2CN(c3cccn(CC(F)F)c3=O)C(=O)[C@H]2NC(=O)c2ccc(OC(F)F)cc2)c(F)c1` [Example 59], the EC50 at human FPR2 stood at 1.5 nM; on human FPR1 it was 6.6 nM.

On to `COCCn1cccc(N2C[C@@H](c3ccc(OC)cc3)[C@H](NC(=O)c3ccc(OC(F)(F)F)cc3)C2=O)c1=O` [Example 60], for which the values for the EC50 at human FPR2 and at human FPR1 were 1.6 nM and 2.6 nM, respectively.

Consider `COc1cc(F)c([C@@H]2CN(c3nc(NC4CCOC4)ccc3F)C(=O)[C@H]2NC(=O)c2ccc(OC(F)(F)F)cc2)c(F)c1` (stereo partly drawn) [Example 62], for which the concentration for a half-maximal effect (EC50) was found to be 1.6 nM at human FPR2 and 110 nM at human FPR1.

With `COc1ccc([C@@H]2CN(c3cccn(CCO)c3=O)C(=O)[C@H]2NC(=O)c2ccc(OC(F)(F)F)cc2)c(F)c1` [Example 63], the EC50 at human FPR2 amounted to 1.7 nM; at human FPR1, 16 nM.

Regarding `COc1ccc([C@@H]2CN(c3cccn(CCO)c3=O)C(=O)[C@H]2NC(=O)c2ccc(OC(F)(F)F)cc2)cc1` [Example 64], the EC50 at human FPR2 came to 1.7 nM; on human FPR1, 7.2 nM.

Regarding `COc1cc(F)c([C@@H]2CN(c3ccnc(N4C[C@@H]5C[C@H]4CN5C)c3C(F)(F)F)C(=O)[C@H]2NC(=O)c2ccc(OC(F)F)cc2)c(F)c1` [Example 65], the EC50 at human FPR2 amounted to 1.7 nM; on human FPR1 it was 180 nM.

As for `COc1cc(F)c([C@@H]2CN(c3nc(N4C(=O)C5CCCC54)ccc3F)C(=O)[C@H]2NC(=O)c2ccc(OC(F)F)cc2)c(F)c1` (stereo partly drawn) [Example 66], the EC50 on human FPR2 was determined as 1.8 nM; at human FPR1, 49 nM.

`CCn1cccc(N2C[C@@H](c3ccc(Cl)cc3)[C@H](NC(=O)c3ccc(OC(F)(F)F)cc3)C2=O)c1=O` [Example 67]: the EC50 on human FPR2 came to 1.8 nM; on human FPR1, 4.4 nM.

For `O=C(N[C@@H]1C(=O)N(c2cccn(CC(F)F)c2=O)C[C@H]1c1ccc(Cl)cc1)c1ccc(OC(F)(F)F)cc1` [Example 69], the values for the EC50 on human FPR2 and at human FPR1 were 1.9 nM and 4.2 nM, respectively.

`COc1cc(N2C[C@@H]3C[C@H]2CN3C)nc(N2C(=O)[C@@H](NC(=O)c3ccc(Cl)cc3)[C@H](c3c(F)cc(OC)cc3F)[C@@H]2C)c1` [Example 70]: the EC50 at human FPR2 is 1.9 nM; on human FPR1, over 10000 nM.

For `COc1cc(N2C[C@@H]3C[C@H]2CN3C)nc(N2C(=O)[C@@H](NC(=O)c3ccc(OC(F)F)cc3)[C@H](c3c(F)cc(OC)cc3F)[C@H]2C)c1` [Example 71], the half-maximal effective concentration (EC50) on human FPR2 turned out to be 1.9 nM; at human FPR1 it was 290 nM.

Take `O=C(N[C@@H]1C(=O)N(c2cccn(CCC(F)(F)F)c2=O)C[C@H]1c1ccc(Cl)cc1)c1ccc(OC(F)F)cc1` [Example 72]: the EC50 turned out to be 1.9 nM at human FPR2 and 5.7 nM at human FPR1.

As for `O=C(N[C@@H]1C(=O)N(c2cccn(CCC(F)(F)F)c2=O)C[C@H]1c1ccc(Cl)cc1)c1ccc(OC(F)(F)F)cc1` [Example 73], the EC50 on human FPR2 turned out to be 1.9 nM; at human FPR1, 3.2 nM.

Turning to `COCCn1cccc(N2C(=O)[C@@H](NC(=O)c3ccc(Cl)cc3)[C@H](c3c(F)cc(OC)cc3F)[C@@H]2C)c1=O` [Example 74], the EC50 at human FPR2 worked out at 1.9 nM; on human FPR1, 94 nM.

`COc1ccc([C@@H]2CN(c3cccn(CCC(F)(F)F)c3=O)C(=O)[C@H]2NC(=O)c2ccc(OC(F)(F)F)cc2)c(F)c1` [Example 75]: the EC50 came to 2 nM on human FPR2 and 2.8 nM at human FPR1.

As to `COc1cc(F)c([C@H]2[C@H](NC(=O)c3ccc(OC(F)F)cc3)C(=O)N(c3ncccc3OC)[C@H]2C)c(F)c1` [Example 77], the figures for the concentration for a half-maximal effect (EC50) at human FPR2 and on human FPR1 were 2 nM and 170 nM, respectively.

Take `COCC(CN)n1cccc(N2C[C@@H](c3c(F)cc(OC)cc3F)[C@H](NC(=O)c3ccc(OC(F)(F)F)cc3)C2=O)c1=O` (stereo partly drawn) [Example 78]: the 50% effective concentration (EC50) on human FPR2 was found to be 2 nM; at human FPR1, 5.2 nM.

Consider `CCn1cccc(N2C(=O)[C@@H](NC(=O)c3ccc(OC(F)F)cc3)[C@H](c3c(F)cc(OC)cc3F)[C@@H]2C)c1=O` [Example 80], for which the EC50 on human FPR2 was 2.1 nM; on human FPR1, 130 nM.

As for `COCCn1cccc(N2C[C@@H](c3ccc(OC)cc3F)[C@H](NC(=O)c3ccc(OC(F)F)cc3)C2=O)c1=O` [Example 81], the EC50 came to 2.2 nM at human FPR2 and 2.7 nM on human FPR1.

With `CCn1cccc(N2C[C@@H](c3ccc(OC)cc3F)[C@H](NC(=O)c3ccc(OC(F)(F)F)cc3)C2=O)c1=O` [Example 82], the 50% effective concentration (EC50) amounted to 2.2 nM on human FPR2 and 5.3 nM at human FPR1.

For `CCn1cccc(N2C[C@@H](c3ccc(OC)cc3F)[C@H](NC(=O)c3ccc(OC(F)F)cc3)C2=O)c1=O` [Example 83], the EC50 came to 2.2 nM on human FPR2 and 7.6 nM at human FPR1.

For `COc1cc(F)c([C@@H]2CN(c3nc(NC4CCOC4)ccc3F)C(=O)[C@H]2NC(=O)c2ccc(OC(F)(F)F)cc2)c(F)c1` (stereo partly drawn) [Example 84], the EC50 on human FPR2 was 2.3 nM; on human FPR1 it was 120 nM.

Regarding `COc1cc(F)c([C@@H]2CN(c3cccn(CCN(C)C)c3=O)C(=O)[C@H]2NC(=O)c2ccc(OC(F)(F)F)cc2)c(F)c1` [Example 85], the values for the EC50 at human FPR2 and at human FPR1 were 2.3 nM and 160 nM, respectively.

For the compound `COc1cc(F)c([C@@H]2CN(c3c(C)ccn(CC(F)F)c3=O)C(=O)[C@H]2NC(=O)c2ccc(OC(F)(F)F)cc2)c(F)c1` [Example 86], the 50% effective concentration (EC50) on human FPR2 amounted to 2.3 nM; at human FPR1, 4.1 nM.

Consider `COc1cc(F)c([C@@H]2CN(c3ccc[nH]c3=O)C(=O)[C@H]2NC(=O)c2ccc(Cl)cc2)c(F)c1` [Example 87], for which the EC50 on human FPR2 worked out at 2.3 nM; at human FPR1, 750 nM.

By EC50 is commonly meant the concentration that produces a half-maximal response.
